The experiment has as its system Mycobacterium bovis BCG. Put plainly: microbe, parasite or virus in culture. The experiment is classed as cell-based. The following applies: for IC50: M. bovis BCG growth, 8 days incubation; for inhibition at 1 µg/mL: read-out: % Inhibition of growth of Mycobacterium Bovis BCG, at 1 μg/ml concentration.
The mark [1] stands for this setting: Mycobacterium tuberculosis variant bovis BCG, BCG, 192 h.
Setting [2] is: Mycobacterium tuberculosis variant bovis BCG, BCG.

In brackets after ≈: the same amount, converted by molar mass.

The term IC50 denotes the midpoint of a concentration-inhibition curve.

On to `C=CCCCCCCCCCC1OC(CO)C(O)C1O` (stereo not drawn) [Compound 1], for which, under setting [1], the MIC90 turned out to be 15 µg/mL (≈ 52.4 µM) and the half-inhibitory concentration (IC50) turned out to be 1.1 µg/mL (≈ 3.84 µM). Besides, the inhibition at 1 µg/mL under setting [2] was 48%.
Regarding `C=CCCCCCCCCCO` [Compound 10-undecenol, 10-undecenol, reference compound], the “inhibition of M. bovis BCG (control experiment with aglycon)” value (FIG. 1d, doses 0.1 to 100 μg/ml) is “poor inhibitor”.
For `CC[C@@H](CO)NCCN[C@@H](CC)CO` [Ethambutol, ethambutol, reference compound], under setting [1], the MIC90 was found to be 2.9 µg/mL (≈ 14.2 µM) and the midpoint of inhibition, the IC50, lay at 0.2 µg/mL (≈ 0.979 µM). For the same molecule, the inhibition at 1 µg/mL under setting [2] was determined as 85%.
Molecule `C=CCCCCCCCCCC1OC(COC2OC(CO)C(O)C2O)C(O)C1O` (stereo not drawn) [Compound 4] yielded an IC50 of 19 µg/mL (≈ 45.4 µM). Also, the “% Inhibition of growth of Mycobacterium Bovis BCG” value (at 1 μg/ml concentration) amounted to 28%.
`CO[C@H]1/C=C/O[C@@]2(C)Oc3c(C)c(O)c4c(O)c(c(/C=N/N5CCN(C)CC5)c(O)c4c3C2=O)NC(=O)/C(C)=C\C=C\[C@H](C)[C@H](O)[C@@H](C)[C@@H](O)[C@@H](C)[C@H](OC(C)=O)[C@@H]1C` [Rifampicin, rifampicin, reference compound] showed an IC50 under setting [1] of 0.02 µg/mL (≈ 0.0243 µM). Besides, the inhibition at 0.2 µg/mL (Mycobacterium tuberculosis variant bovis BCG, BCG, read-out: % Inhibition of growth of Mycobacterium Bovis BCG, at 0.2 μg/ml) is 99%.
`C=CCCCCCCCCC[C@H]1O[C@H](CO)[C@@H](O)[C@@H]1O` [Compound 2]: the IC50 (listed as α-C-glycoside) stood at 0.2 µg/mL (≈ 0.698 µM). In addition, under setting [1], the MIC90 came to 1.6 µg/mL (≈ 5.59 µM) and the IC50 amounted to 0.19 µg/mL (≈ 0.663 µM). Further, under setting [2], the inhibition at 1 µg/mL came to 85%.
